Calls of active or inactive are those of the source. No rule for the calls is given here.
molecular target: Mu-type opioid receptor (Homo sapiens) (UniProt P35372); experiment: OPRM1 activation in single-receptor cells, late-stage follow-up, counter-screen for OPRM1-OPRD1 heterodimer activator project, cell-based, luminescence, dose response (AID 651689); settings: OPRM1 cell line, luminescence activation counterscreen
Sequence (P35372 whole entry, looked up): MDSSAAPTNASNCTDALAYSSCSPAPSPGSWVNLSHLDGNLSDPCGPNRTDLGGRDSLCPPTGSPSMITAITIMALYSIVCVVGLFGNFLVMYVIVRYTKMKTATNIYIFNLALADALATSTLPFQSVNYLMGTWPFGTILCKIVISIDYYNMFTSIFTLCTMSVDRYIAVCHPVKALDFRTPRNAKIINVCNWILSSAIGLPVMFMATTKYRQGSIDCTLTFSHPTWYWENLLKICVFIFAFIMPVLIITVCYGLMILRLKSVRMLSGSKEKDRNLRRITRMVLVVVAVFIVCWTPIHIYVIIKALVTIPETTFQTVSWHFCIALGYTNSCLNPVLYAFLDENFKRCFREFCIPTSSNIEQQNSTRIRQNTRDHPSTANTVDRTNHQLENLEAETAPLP

Row | SMILES | EC50
1 | CCOC(=O)C1(CCOc2ccccc2)CCN(Cc2ccc(O)c(OC)c2)CC1 | > 40 µM (inactive)
2 | CCOC(=O)C1(CCc2ccccc2)CCN(Cc2cc(C)cc(C)c2)CC1 | > 40 µM (inactive)
3 | CCOC(=O)C1(CCc2ccccc2)CCN(Cc2ccc(NC(C)=O)cc2)CC1 | inactive
4 | CCOC(=O)C1(Cc2ccccc2)CCN(Cc2cccn2-c2cccnc2)CC1 | > 40 µM (inactive)
5 | CCOC(=O)C1(Cc2ccccc2)CCN(Cc2cccn2-c2nccs2)CC1 | > 40 µM (inactive)
6 | CCOC(=O)C1(CCc2ccccc2)CCN(Cc2ccc(OC(C)C)c(C#N)c2)CC1 | > 40 µM (inactive)
7 | OCC1(CCc2ccccc2)CCN(Cc2cc(F)ccc2-n2cccn2)CC1 | > 40 µM (inactive)
8 | CCOC(=O)C1(CCc2ccccc2)CCN(Cc2ccccc2C)CC1 | inactive
9 | CCOC(=O)C1(CCCc2ccccc2)CCN(Cc2cnn(C)c2)CC1 | > 40 µM (inactive)
10 | CCOC(=O)C1(CC2CCCCO2)CCN(Cc2c(C)cc(C)cc2-n2cccn2)CC1 (stereo unspecified) | 7.4 µM
11 | CCOC(=O)C1(CCOc2ccccc2)CCN(Cc2cccn2-c2cccnc2)CC1 | inactive

Reference: PubChem BioAssay AID651689 (The Scripps Research Institute Molecular Screening Center, 2012)
